The record followed here is ChEMBL document CHEMBL1201862, “PubChem BioAssay data set” (2004).

Activity calls are given as the source filed them.

The nature of experiment [1]: inhibition of ADAM10 peptide cleavage – biochemical, FRET peptide substrate, recombinant human ADAM10, selectivity assay for ADAM17 exosite inhibitor project, dose response (AID 743259).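 Also: ADAM10 enzyme cleaving a FRET peptide substrate.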
Experiment [2] deals with Disintegrin and metalloproteinase domain-containing protein 17 (Homo sapiens, UniProt P78536). Nature of the experiment: exosite inhibitors of ADAM17, dose response, biochemical (AID 743260).
For experiment [3], the target named is Kallikrein-7 (Homo sapiens, UniProt P49862). The experiment in a line: Fluorescence Intensity-based biochemical primary high throughput dose response assay to identify activators of kallikrein-7 (K7) zymogen.
The target in experiment [4] is T1, Caspase-6 (Homo sapiens, UniProt P55212).
T1 sequence (P55212 whole entry): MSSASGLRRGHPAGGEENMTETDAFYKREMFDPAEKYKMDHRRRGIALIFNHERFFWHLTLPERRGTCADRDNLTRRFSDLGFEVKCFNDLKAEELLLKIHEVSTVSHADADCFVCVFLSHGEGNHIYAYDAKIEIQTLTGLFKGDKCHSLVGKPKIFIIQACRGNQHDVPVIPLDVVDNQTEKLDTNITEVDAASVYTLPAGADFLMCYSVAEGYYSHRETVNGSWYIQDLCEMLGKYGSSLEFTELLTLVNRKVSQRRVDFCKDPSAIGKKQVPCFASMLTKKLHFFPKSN
The experiment in a line: inhibition of CASP6 peptide cleavage – biochemical, VEID-R110 fluorescence, cherry-pick, dose response (AID 720632).

For experiment [5], the system named is Vero. Nature of the experiment: viability of Vero cells under compound – cytotoxicity control for flavivirus capping enzyme inhibitors (AID 588742). In kind it is functional. The note with it: Chlorocebus sabaeus.
The target in experiment [6] is Tyrosyl-DNA phosphodiesterase 2 (Homo sapiens, UniProt O95551). Nature of the experiment: potency against TDP2 phosphodiesterase activity – biochemical, epi absorbance, IC50, dose response (AID 743297).
In experiment [7] the target is Genome polyprotein (dengue virus type 2, UniProt P29990). The experiment in a line: flavivirus cap methylation enzyme inhibition – biochemical, confirmation dose response, primary screen (AID 588689). In kind it is functional.
For experiment [8], the target named is Glucose-6-phosphate 1-dehydrogenase (Homo sapiens, UniProt P11413). The experiment in a line: inhibition of Homo sapiens G6PD, dose series – biochemical, fluorescence, selectivity assay for P. falciparum G6PD inhibitor project, dose response (AID 504792). In kind it is functional.
Experiment [9] addresses T2, Rac GTPase-activating protein 1 (Homo sapiens, UniProt Q9H0H5).
T2 sequence (Q9H0H5 whole entry): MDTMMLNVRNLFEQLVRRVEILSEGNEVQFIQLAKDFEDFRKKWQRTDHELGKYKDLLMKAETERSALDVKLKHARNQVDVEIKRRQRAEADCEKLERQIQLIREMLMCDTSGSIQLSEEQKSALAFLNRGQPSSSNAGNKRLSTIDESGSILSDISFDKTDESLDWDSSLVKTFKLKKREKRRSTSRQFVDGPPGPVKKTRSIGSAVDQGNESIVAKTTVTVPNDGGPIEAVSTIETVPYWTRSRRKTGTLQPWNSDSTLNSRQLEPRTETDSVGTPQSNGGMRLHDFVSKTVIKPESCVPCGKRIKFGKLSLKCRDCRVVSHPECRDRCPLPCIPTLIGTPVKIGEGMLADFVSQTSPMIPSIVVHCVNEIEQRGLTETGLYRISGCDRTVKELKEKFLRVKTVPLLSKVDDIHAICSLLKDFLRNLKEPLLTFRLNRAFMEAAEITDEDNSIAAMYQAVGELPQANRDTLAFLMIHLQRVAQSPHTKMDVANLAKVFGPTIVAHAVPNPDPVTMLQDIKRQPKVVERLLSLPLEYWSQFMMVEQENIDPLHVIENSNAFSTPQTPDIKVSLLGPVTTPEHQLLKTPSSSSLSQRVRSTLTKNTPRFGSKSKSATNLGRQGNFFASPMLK
The experiment in a line: blockers of MgcRacGAP-driven Rac1 GTP hydrolysis – biochemical, ADP Hunter fluorescence, primary and confirmatory, confirmation (AID 624330). In kind it is functional.

Experiment [10] deals with Nonstructural protein 1 (Influenza A virus, UniProt Q194T2). The experiment is classed as functional, Influenza A virus (A/California/07/2009(H1N1)).
Experiment [11] concerns the target T3, Mitochondrial peptide methionine sulfoxide reductase (Bos taurus, UniProt P54149).
T3 sequence (P54149 whole entry): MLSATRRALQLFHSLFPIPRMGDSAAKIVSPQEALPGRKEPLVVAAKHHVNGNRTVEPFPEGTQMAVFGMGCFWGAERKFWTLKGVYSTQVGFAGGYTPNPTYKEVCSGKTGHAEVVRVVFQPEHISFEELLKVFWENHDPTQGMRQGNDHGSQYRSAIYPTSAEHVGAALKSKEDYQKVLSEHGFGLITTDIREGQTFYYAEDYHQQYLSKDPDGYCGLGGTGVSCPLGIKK
Nature of the experiment: Absorbance-based biochemical high throughput dose response assay for activators of Methionine sulfoxide reductase A (MsrA). The experiment is classed as functional.

Experiment [12] is described as follows: general cell-killing toxicity readout – plate reader, dry powder samples, cytotoxicity control for PAX8 inhibitor project, dose response (AID 743021). The experiment is classed as functional, cell-based.
Experiment [13] has as its target Paired box protein Pax-8 (Homo sapiens, UniProt Q06710). The experiment in a line: PAX8 transcriptional activity inhibition in RMG-I – RMG-I cells, luciferase, cherry-pick, dose response (AID 687027).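 Also: luciferase reporter driven by Pax8 target thyroperoxidase promoter measured by SteadyGlo luminescence.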 The experiment is classed as functional, cell-based.
Experiment [14] is described as follows: OVCAR-3 cell viability loss – plate reader, dry powder samples, PAX8 inhibitor project, dose response (AID 743044). In kind it is functional, cell-based.
A short description of experiment [15]: reduced cellular PGC1a acetyl-lysine signal – cell-based, cherry-picked samples, dose response (AID 720514).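 Also: potency may reflect raised or lowered acetylation signal.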 The experiment is classed as functional.
Experiment [16] is described as follows: OVCAR8 cell viability loss – plate reader, dry powder samples, PAX8 project, dose response (AID 743197). In kind it is functional, cell-based. The note with it: OVCAR-8.
A short description of experiment [17]: IGROV1 cell killing – plate reader, dry powder samples, PAX8 inhibitor project, dose response (AID 743043). The experiment is classed as functional, cell-based. The note with it: IGROV-1.
Experiment [18] is described as follows: A2780 cell killing – plate reader, dry powder samples, cytotoxicity control, dose response (AID 743046). In kind it is functional, cell-based.
Experiment [19] in a line: toxicity toward immortalized ovarian surface epithelium – cell-based, plate reader, dry powder samples, cytotoxicity control for PAX8 inhibitor project, dose response (AID 743045). The experiment is classed as functional.
Experiment [20] is described as follows: general mammalian cell viability loss – activator set, cherry-pick, cytotoxicity control for miR-122 modulator project, dose response (AID 720690).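 Also: HEK293T human cells scored for general mammalian cytotoxicity.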 In kind it is functional, cell-based.
Experiment [21] in a line: general mammalian cell viability loss – inhibitor set, cherry-pick, set 2, cytotoxicity control for miR-122 modulator project, dose response (AID 720697). In kind it is functional, cell-based.

Disintegrin and metalloproteinase domain-containing protein 17, sequence (P78536 whole entry, the tested form may be a part): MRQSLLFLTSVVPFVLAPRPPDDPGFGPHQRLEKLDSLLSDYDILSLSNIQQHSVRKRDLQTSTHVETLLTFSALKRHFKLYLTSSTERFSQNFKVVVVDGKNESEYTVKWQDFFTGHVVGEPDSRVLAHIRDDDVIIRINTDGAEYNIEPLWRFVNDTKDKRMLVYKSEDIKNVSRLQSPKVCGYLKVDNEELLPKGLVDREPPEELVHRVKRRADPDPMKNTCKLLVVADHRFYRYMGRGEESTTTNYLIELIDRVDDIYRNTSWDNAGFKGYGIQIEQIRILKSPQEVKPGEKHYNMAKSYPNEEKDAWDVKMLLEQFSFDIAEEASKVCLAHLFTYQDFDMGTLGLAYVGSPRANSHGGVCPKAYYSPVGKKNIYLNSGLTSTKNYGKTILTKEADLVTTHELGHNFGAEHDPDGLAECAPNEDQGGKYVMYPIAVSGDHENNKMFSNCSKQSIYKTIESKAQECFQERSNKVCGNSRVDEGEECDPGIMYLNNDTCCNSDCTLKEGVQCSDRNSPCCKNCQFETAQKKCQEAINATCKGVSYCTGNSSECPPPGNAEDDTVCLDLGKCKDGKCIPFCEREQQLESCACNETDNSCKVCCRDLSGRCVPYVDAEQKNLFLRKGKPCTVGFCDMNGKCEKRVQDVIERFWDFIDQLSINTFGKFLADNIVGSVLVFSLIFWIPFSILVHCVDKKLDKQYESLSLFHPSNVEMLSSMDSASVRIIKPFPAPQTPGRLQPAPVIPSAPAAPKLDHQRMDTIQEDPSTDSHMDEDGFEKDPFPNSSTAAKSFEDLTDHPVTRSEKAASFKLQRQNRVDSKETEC
Paired box protein Pax-8, sequence (Q06710 whole entry): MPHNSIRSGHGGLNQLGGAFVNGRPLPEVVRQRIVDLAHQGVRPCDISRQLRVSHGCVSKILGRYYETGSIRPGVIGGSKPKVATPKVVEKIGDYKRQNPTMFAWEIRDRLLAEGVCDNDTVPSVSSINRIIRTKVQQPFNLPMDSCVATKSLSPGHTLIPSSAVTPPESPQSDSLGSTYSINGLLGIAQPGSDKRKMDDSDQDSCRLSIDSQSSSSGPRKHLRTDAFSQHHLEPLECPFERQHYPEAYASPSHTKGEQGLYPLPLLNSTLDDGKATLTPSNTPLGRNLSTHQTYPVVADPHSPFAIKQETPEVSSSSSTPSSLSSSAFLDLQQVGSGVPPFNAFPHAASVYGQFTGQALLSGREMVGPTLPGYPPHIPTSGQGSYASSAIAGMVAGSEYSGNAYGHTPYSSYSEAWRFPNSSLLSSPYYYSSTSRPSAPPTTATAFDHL
Kallikrein-7, sequence (P49862 whole entry): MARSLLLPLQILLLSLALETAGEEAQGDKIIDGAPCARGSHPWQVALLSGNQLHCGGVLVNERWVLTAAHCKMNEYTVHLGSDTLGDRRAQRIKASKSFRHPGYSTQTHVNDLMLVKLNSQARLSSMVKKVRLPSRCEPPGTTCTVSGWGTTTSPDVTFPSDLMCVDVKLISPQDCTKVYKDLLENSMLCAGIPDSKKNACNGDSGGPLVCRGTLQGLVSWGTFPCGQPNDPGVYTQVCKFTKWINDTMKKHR
Nonstructural protein 1, sequence (Q194T2 whole entry): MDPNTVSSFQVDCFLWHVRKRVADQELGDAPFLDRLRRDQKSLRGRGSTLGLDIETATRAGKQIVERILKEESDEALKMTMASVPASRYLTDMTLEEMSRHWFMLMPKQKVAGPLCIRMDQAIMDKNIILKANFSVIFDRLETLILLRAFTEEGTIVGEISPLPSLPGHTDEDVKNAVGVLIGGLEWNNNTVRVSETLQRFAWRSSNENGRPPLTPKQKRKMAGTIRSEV
Tyrosyl-DNA phosphodiesterase 2, sequence (O95551 whole entry): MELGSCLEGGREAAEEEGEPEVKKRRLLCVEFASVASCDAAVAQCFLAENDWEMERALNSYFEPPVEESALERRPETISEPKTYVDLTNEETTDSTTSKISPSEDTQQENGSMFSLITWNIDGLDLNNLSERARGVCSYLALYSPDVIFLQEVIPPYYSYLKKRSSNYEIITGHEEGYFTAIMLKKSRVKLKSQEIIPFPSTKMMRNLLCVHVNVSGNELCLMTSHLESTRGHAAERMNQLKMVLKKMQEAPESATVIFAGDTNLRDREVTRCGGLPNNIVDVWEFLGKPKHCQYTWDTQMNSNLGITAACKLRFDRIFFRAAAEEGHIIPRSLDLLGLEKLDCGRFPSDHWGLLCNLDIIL
Glucose-6-phosphate 1-dehydrogenase, sequence (P11413 whole entry): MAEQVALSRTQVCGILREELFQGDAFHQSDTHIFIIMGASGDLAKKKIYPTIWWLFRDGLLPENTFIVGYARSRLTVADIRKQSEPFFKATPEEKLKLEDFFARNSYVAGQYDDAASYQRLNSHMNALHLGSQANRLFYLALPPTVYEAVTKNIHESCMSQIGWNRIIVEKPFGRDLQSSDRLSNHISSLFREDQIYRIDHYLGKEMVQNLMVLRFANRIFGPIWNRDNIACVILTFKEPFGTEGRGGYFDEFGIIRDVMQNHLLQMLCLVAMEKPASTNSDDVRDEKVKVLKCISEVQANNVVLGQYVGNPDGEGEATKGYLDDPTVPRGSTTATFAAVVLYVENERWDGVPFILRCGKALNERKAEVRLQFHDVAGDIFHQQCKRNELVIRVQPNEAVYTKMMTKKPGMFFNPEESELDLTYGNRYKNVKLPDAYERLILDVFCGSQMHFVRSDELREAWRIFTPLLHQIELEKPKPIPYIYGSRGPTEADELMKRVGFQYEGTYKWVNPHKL
Genome polyprotein, sequence (P29990 2492-3391 limits assumed): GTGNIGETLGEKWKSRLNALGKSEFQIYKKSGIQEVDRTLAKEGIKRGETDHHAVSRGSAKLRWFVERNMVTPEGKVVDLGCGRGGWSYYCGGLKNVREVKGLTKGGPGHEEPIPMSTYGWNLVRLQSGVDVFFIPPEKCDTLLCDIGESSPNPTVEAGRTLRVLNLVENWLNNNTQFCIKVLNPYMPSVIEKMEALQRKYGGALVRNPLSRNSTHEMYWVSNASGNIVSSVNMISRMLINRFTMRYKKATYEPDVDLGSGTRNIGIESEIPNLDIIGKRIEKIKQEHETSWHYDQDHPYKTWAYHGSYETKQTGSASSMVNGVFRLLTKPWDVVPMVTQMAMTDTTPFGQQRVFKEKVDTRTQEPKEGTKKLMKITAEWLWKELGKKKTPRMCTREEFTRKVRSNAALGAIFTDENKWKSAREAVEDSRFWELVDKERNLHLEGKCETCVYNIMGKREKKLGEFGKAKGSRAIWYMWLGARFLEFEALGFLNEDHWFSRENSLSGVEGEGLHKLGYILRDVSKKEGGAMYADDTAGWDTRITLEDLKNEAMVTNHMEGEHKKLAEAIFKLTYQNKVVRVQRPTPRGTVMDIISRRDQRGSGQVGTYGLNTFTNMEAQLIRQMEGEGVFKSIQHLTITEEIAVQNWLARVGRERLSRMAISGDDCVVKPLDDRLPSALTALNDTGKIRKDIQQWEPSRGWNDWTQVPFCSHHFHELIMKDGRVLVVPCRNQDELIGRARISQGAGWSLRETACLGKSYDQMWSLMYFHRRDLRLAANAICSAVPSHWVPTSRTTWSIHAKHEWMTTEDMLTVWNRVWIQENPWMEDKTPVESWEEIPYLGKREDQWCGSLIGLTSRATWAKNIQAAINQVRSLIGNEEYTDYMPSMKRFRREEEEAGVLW

For `COc1ccc(OC)c(-c2csc(NC(=O)COC(=O)C3(C)CC3(Cl)Cl)n2)c1` (centres undefined), the IC50 (usually the concentration needed to halve the response being measured) was 13.1 µM (inactive) in [1] and > 69.5 µM (inactive) in [2].
Consider `COc1ccc2oc(=O)c(C(=O)N3CCN(C(=O)c4ccccc4)CC3)cc2c1`, for which the EC50 (commonly the concentration giving half of the maximal effect) in [3] was > 69.5 µM (inactive).
Take `C[n+]1c(-c2ccccc2)cc2c(=Cc3ccc([N+](=O)[O-])cc3)c3ccccc3n21`: the AC50 (in general, the concentration at which the activity in the assay is half-maximal) in experiment [4] is 0.309 µM (active). Besides, in [5], the CC50 (in general, the concentration that lowers cell viability or growth by half) was 34.8 µM (active). For the same molecule, the IC50 was > 128 µM (inactive) in [6]; 14.2 µM (active) in [7]; > 80 µM (inactive) in [8]; 31.5 µM (active) in experiment [9]; 9.36 µM (active) in experiment [10]. In addition, the EC50 in [11] was > 104 µM (inactive).
Regarding `Brc1ccc2nc(-c3ccc(CN4CCC(c5nc6ccccc6[nH]5)CC4)cc3)c(-c3ccccc3)nc2c1`, the values for the AC50 in experiment [12] and in [13] were 37.8 µM (active) and 9.03 µM (active), respectively.
Turning to `N#Cc1ccc(-c2ccc([C@@H]3[C@@H]4CN(S(=O)(=O)c5ccc(-c6ccccc6)cc5)C[C@H]3N4)cc2)cc1`, the concentration at half-maximal activity (AC50) is 28.8 µM (active) in [14]; 1.55 µM (active) in experiment [15]; 17.8 µM (active) in experiment [16]; 34.9 µM (active) in experiment [17]; 17.8 µM (active) in [18]; 23.3 µM (active) in [19]. Moreover, in experiment [13], the half-maximal activity concentration (AC50) is 41.9 µM (active).
Regarding `CN1C(=O)c2cc(NC(=O)c3ccc(C(F)(F)F)cc3)ccc2OC[C@H]2O[C@H](CC(=O)NC3Cc4ccccc4C3)CC[C@@H]21`, the half-maximal activity concentration (AC50) in experiment [20] was 0.335 µM (active); in experiment [21], 0.324 µM (active).
On to `Cc1ccc(OCCOCCOc2ccc(Br)cc2/C=N\NC(=O)c2ccncc2)cc1`, for which the IC50 in [1] and in [2] was > 69.5 µM (inactive) each time.
